These are literature values, as cited in US20240216299A1, “TRANSMUCOSAL THERAPEUTIC SYSTEM CONTAINING AGOMELATINE” (LTS LOHMANN Therapie-Systeme AG, priority 2019, published 2024).

Some results are limits rather than exact numbers.

Setting [1] is: patients with moderate hepatic impairment compared to healthy subjects.

On to `COc1ccc2cccc(CCNC(C)=O)c2c1` [agomelatine, N-(2-(7-Methoxy-1-naphthyl)ethyl)acetamide], for which, where the note is “oral”, the oral absorption was greater than 80% and the overall bioavailability entry is given as “less than 5%”. Under setting [1], the “increase in AUC” value is given as “up to 140 fold” and the “increase in Cmax” value is “up to 140 fold”.
